# Data: patent US20050165074A1, “Amide derivatives as C-KIT modulators” (Ambit Biosciences Corporation, priority 2003, published 2005)
# Assays:
# KIT (DKIN) = KIT (DKIN) (Homo sapiens, UniProt P10721); experiment: Binding constant (Kd) measurement, phage-displayed kinase competition binding assay, KIT (DKIN); details: c-Kit, DKIN construct
# Excerpt: (§1) The term “ND” represents non-determined values.
# KIT (JMminus) = KIT (JMminus) (Homo sapiens, UniProt P10721); experiment: Binding constant (Kd) measurement, phage-displayed kinase competition binding assay, KIT (JMminus); details: c-Kit, JMminus construct
# KIT (JMminus), sequence (P10721 589-937 limits assumed): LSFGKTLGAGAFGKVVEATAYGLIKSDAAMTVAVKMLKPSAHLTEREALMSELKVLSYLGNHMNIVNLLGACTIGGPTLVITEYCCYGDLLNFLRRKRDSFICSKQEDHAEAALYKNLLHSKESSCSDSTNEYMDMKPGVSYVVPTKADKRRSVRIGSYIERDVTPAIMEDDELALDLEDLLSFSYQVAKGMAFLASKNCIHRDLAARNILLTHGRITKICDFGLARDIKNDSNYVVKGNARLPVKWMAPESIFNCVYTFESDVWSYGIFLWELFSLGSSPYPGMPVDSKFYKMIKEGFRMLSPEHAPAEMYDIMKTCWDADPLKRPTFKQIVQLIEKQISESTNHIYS
# Excerpt: as §1
# KIT (DKIN), sequence (P10721 589-937 limits assumed): as above
SMILES,Kd (KIT (DKIN)) [nM],Kd (KIT (JMminus)) [nM]
COc1ccc(CC(=O)Nc2cc(C(C)(C)C)no2)cc1,100 to 1000,–
CC(C)(C)c1cc(NC(=O)Cc2ccc(F)cc2)on1,1000 to 10000,–
CC(C)(C)c1cc(NC(=O)Cc2ccc(Cl)cc2)on1,1000 to 10000,–
CC(C)(C)c1cc(NC(=O)Cc2ccc(Br)cc2)on1,100 to 1000,–
CC(C)(C)c1cc(NC(=O)Cc2ccc(NC(=O)c3ccc4cnccc4n3)cc2)no1,–,< 100
Cn1cc(C(=O)Nc2ccc(CC(=O)Nc3cc(C(C)(C)C)on3)cc2)c2ccccc21,–,< 100
CC(C)(C)c1cc(NC(=O)Cc2ccc(NC(=O)c3cccc4cccnc34)cc2)no1,–,100 to 1000
CC(C)(C)c1cc(NC(=O)Cc2ccc(NC(=O)c3cnc4ccccc4c3)cc2)no1,–,< 100

# The remaining lines, values ahead:
Kd (KIT (DKIN)) [nM],Kd (KIT (JMminus)) [nM],SMILES
100 to 1000,–,CC(C)(C)c1cc(NC(=O)Cc2ccc(OCc3ccccc3)cc2)on1
1000 to 10000,–,COc1cccc2cc([C@H](C)C(=O)Nc3cc(C(C)(C)C)on3)ccc12
–,< 100,Cc1nn(C)c(Cl)c1C(=O)Nc1ccc(CC(=O)Nc2cc(C(C)(C)C)on2)cc1
–,< 100,CSc1ncc(Br)c(C(=O)Nc2ccc(CC(=O)Nc3cc(C(C)(C)C)on3)cc2)n1
